Laboratory results reported in PMC9655618 (Cancers, 2022).

How the values were obtained:
[1] = system: glucocorticoid receptor (GR)-dependent transcriptional activity, MDA-kb2 cells; experiment: GR-mediated transcription, luciferase reporter in MDA-kb2 cells (dexamethasone); settings: 100 nM Dexamethasone; compounds 1–10 µM
[2] = system: ERα, pS2 and PR mRNA in Ishikawa cells; experiment: Quantitative real-time PCR of ERα-regulated genes; format: cell-based, human; settings: for effect on E2-induced mRNA expression: 3 h pretreatment, E2 10 nM 24 h; for induction of basal mRNA level of PR gene: absence of E2
Description: (§1) For gene expression analysis, MCF-7 and Ishikawa cells were deprived of steroid hormones by using a 10DCC-FBS medium for five days. Then, 1,500,000 cells/dish were seeded in 5DCC-FBS, followed by treatment with test compounds. Total RNA was isolated by using TRItidy G™ (Panreac Applichem ITW Reagents, Darmstadt, Germany). The concentration and purity of RNA were determined with a NanoDrop 1000 spectrophotometer (Wilmington, NC, USA). Then, 1 µg of total RNA was reversed and amplified with the iScriptTM kit (Bio-Rad) following the manufacturer’s protocol. SYBR Green PCR Master mix (Applied Biosystems, Bedford, MA, USA) reagent and exon-specific primers for ERα were used for Real-time quantitative PCR (qPCR). Gene expression was analyzed with an Mx3005P qPCR System (Agilent, Santa Clara, CA, USA), and cycle threshold values were calculated using MxPro qPCR Software (Agilent, CA, USA). Target gene expression was normalized to the expression of the 18S housekeeping gene. Data were expressed as relative expression values according to the comparative CT method for qPCR [42].

[3] = system: ERα, pS2 and PR mRNA in MCF-7 cells; experiment: Quantitative real-time PCR of ERα-regulated genes; format: cell-based, human; settings: 3 h pretreatment, E2 10 nM 24 h; 32 5 µM, 35 10 µM, ICI 0.1 µM, 4-OHTAM 1 µM
Description: as §1

[4] = system: ERα-mediated transcription (3xERE-luciferase), T47D-KBluc cells; experiment: ER-dependent transcriptional activity, 3xERE-luciferase reporter in T47D-KBluc cells; settings: until dropping to 20% Emax
[5] = system: STAT3 transcriptional activity in HEK293 cells; experiment: IL6-induced STAT3 transcriptional activity, Renilla reporter HEK-293 cells; settings: 4 h pretreatment, hIL6 10 ng/ml 16 h
T47D cells = experiment: Cell cycle analysis by flow cytometry; format: cell-based, human; settings: 5 μM; 48h
Description: For cell cycle studies, unsynchronized T47D cells were seeded at 250,000 cells/well in RPMI (Biowest, Nuaillé, France) 10% FBS medium supplemented with L-glutamine (2 mM), HEPES (10 mM), sodium pyruvate (1 mM) and PEST. […] Cells were then washed in ice-cold PBS and fixed in cold 70% ethanol at −20 °C overnight. Then, the cell pellet was resuspended in FACs buffer (2 mM EDTA, 2% FBS in PBS) and incubated with Ki67-APC antibody (Miltenyi Biotec, Auburn, CA, USA) and DAPI (4′,6-diamidino-2-phenylindole; Sigma-Aldrich) for 20 min at room temperature. Finally, cells were washed and resuspended with FACs Buffer for cell cycle analyses. For apoptosis studies, an Annexin V-FITC Apoptosis Kit (Miltenyi Biotec) was used. Briefly, treated cells were collected in 100 μL of ice-cold AnnexinV binding buffer (10 mM HEPES pH 7.4, 140 mM NaCl, 2.5 mM CaCl2) containing 10 μL of Annexin-V FITC and incubated for 15 min at room temperature. After that, cells were washed with 1 mL binding buffer, sedimented at 300× g 10 min, and resuspended with 500 μL binding buffer containing 5 μL of propidium iodide (PI; 100 μg/mL) prior to acquisition in MACSQuant10 cytometer (Miltenyi Biotec) where 10,000 or 20,000 events were used for cell cycle and apoptosis analysis, respectively.

[6] = system: T47D estrogen-depleted cells; experiment: E2-induced proliferation of estrogen-depleted cells (AUC of growth kinetics); format: cell-based; settings: E2-depleted conditions
Description: To monitor long-term growth, human ER+ BC (T47-D, MCF-7, MCF-7/BUS), ER+ endometrial (Ishiwaka, High Point, NC, USA), or non-malignant breast (MCF-10A) cells were seeded at 3000–6000 cells per well. […] When indicated, cells were estrogen-deprived in a 10DCC-FBS supplemented medium for one week. […] Cytotoxicity was monitored by using YOYO-1 (Invitrogen, Waltham, MA, USA). Cell proliferation and cytotoxicity were monitored by sequential real-time microphotographs in an IncuCyte HD real-time imaging system (Essen BioScience, Hertfordshire, UK) for 5–10 days. The area under the curve (AUC) was then analyzed to know both the kinetics and dose-effect relationships. […] Next, cells were treated with VEH (0.05% DMSO) or test compounds for 5–10 days. Spheroid size and cell cytotoxicity were recorded with the Incucyte SX5 Live-Cell Analysis Instrument (Sartorius AG, Göttingen, Germany). To calculate the spheroid growth area, confluence measurements were taken considering the largest brightfield object area (µm^2). Cytotoxicity was monitored by using YOYO-1 (Essen Bioscience, Hertfordshire, UK).

[7] = system: T47D cancer cell spheroids; experiment: Real-time monitoring of 3D tumor spheroid growth; format: cell-based, human; settings: 8 days
[8] = system: polyubiquitinated protein level in T47D cells; experiment: Immunoblotting; format: cell-based, human; settings: from 24 h to 72 h
Description: Then, they were washed with ice-cold PBS supplemented with 1 mM ortovanadate and lysed with RIPA buffer containing protease and phosphatase inhibitors (Thermo Fisher Scientific, Waltham, MA, USA). Equal protein amounts were analyzed by SDS–PAGE, and transferred to nitrocellulose membranes (Thermo Fisher Scientific, Waltham, MA, USA), blocked with Tris-buffered saline/0.05% Tween 20 (TBS-T) containing 5% blotto (Merck, Darmstadt, Germany) or 5% BSA for total and phosphorylated proteins, respectively. Immunoblotting was carried out with mouse anti-ERα F-10 (Santa Cruz Biotech, Santa Cruz, CA, USA), rabbit total anti-STAT5 (Cell Signaling Technology, Leiden, The Netherlands) or mouse anti-polyubiquitin (EMD Millipore, Burlington, MA, USA). After washing, membranes were incubated with horseradish peroxidase-conjugated secondary antibodies (Bio-Rad) for 1 h at room temperature. The β-actin antibody (Santa Cruz Biotech, CA, USA) was used as the loading control. Finally, protein bands were visualized by using Clarity™ Western ECL Substrate (Bio-Rad) in the ChemiDoc XRS system (Bio-Rad) and were analyzed with Quantity One software (Bio-Rad).

[9] = system: STAT5 transcriptional activity in Ba/F3 cells; experiment: IL3-stimulated STAT5 transcriptional activity, Renilla reporter Ba/F3 cells; settings: 4 h pretreatment, mIL3 30 ng/ml 16 h

Structure (SMILES)	effect on DEX-induced luciferase activity [1]	effect on E2-induced mRNA expression [2]	induction of basal mRNA level of PR gene [2]	effect on E2-induced mRNA expression [3]	effect on E2-induced luciferase activity [4]	IC50, IL6-induced STAT3 transcriptional activity [5]	G2/S/M cells (T47D cells)	estrogenic effect on growth [6]	effect on spheroid growth [7]	effect on polyubiquitinated protein level [8]	IC50, IL3-stimulated STAT5 transcriptional activity [9]
O=C1C(c2ccc([N+](=O)[O-])cc2)=CC(O)(c2ccccc2)N1Cc1ccccc1 (centres unmarked) [compound 35, 1-benzyl-5-hydroxy-3-(4-nitrophenyl)-5-phenyl-1H-pyrrol-2(5H)-one]	Neither 4-OHTAM nor compounds 32 or 35 displayed cross-activation	notably downregulated E2-induced ERα and PR mRNA levels	5 fold	inhibited E2-induced ERα, pS2 and PR mRNA expression	reduced E2-induced luciferase activity	inactive	16.52%	did not increase the growth of ER+ BC cells	reduced the growth of T47D cancer cell spheroids	significantly increased polyubiquitinated protein level	
Cc1ccc(C2=CC(O)(c3ccccc3)N(Cc3ccccc3)C2=O)cc1C (centres unmarked) [compound 32, 1-benzyl-3-(3,4-dimethylphenyl)-5-hydroxy-5-phenyl-1H-pyrrol-2(5H)-one]	Neither 4-OHTAM nor compounds 32 or 35 displayed cross-activation	significative reduction of PR-activated gene expression	2.5 fold	inhibited E2-induced ERα, pS2 and PR mRNA expression				did not increase the growth of ER+ BC cells	reduced the growth of T47D cancer cell spheroids		no activity
